{"source": "patent US10046048B2", "about": "“Homogenous suspension of immunopotentiating compounds and uses thereof” (GlaxoSmithKline Biologicals SA, priority 2009, dated 2018)", "key": {"[1]": {"experiment": "aqueous solubility and chemical stability of Example 47", "type": "physicochemical", "procedure": "Example 47 is a highly crystalline drug substance with very good chemical stability. Due to its extremely low aqueous solubility across full pH range (<0.5 μg/ml) and its high hydrophobic core structure, formulation with Alum (the only vaccine adjuvant licensed in the U.S.) is challenging. However, TLR7 agonist-Alum based vaccines could provide advantages, for example, induction of Th1 polarized response, and enhanced Serum Bactericidal Activity (SBA) and breath of coverage (e.g., MenB)."}, "RSV virus": {"test_system": "RSV virus", "experiment": "neutralizing titers (PRNT60), RSV model", "type": "in vivo, respiratory syncytial virus (RSV)", "settings": "Study 1; Balb/c mice; 25 μg dose", "source_text": "Mice were bled retro-orbitally on day 28."}, "[2]": {"experiment": "particle size after vortexing, sonication, mortar and pestle", "type": "physicochemical", "settings": "for average particle size: 2.5 mg/mL in 0.1% Tween 80 and 0.5% CMC, vortexing", "procedure": "A number of homogenization methods were evaluated, including vortexing, sonication, and mortar and pestle method.\nFor vortexing, Example 47 was suspended at 2.5 mg/mL in 0.1% Tween 80 and 0.5% carboxymethyl cellulose (CMC), followed by vortexing. The average particle size was ˜100 μm.\nFor sonication, Example 47 was suspended at 2.5 mg/mL in 0.1% Tween 80 and 0.5% CMC followed by vortexing. The mixture was then subject to probe sonication for 5 minutes (with ice at 3 W, maximum power based on vial size). Finally, the mixture was homogenized by a handheld homogenizer for a few minutes. The average particle size was ˜80 μm.\nIn mortar and pestle method, 10 mg of Example 47 was ground for 5 minutes using mortar and pestle, then suspended in 0.5% Tween 80. […] Size range for the larger peak was 1-100 μm."}, "[3]": {"experiment": "matrix of surfactants and suspending agents, size distribution by Mastersizer", "type": "physicochemical", "settings": "vortexed, probe sonicated, homogenized", "procedure": "A number of surfactants and suspension agents were also evaluated. The matrix of surfactants and suspending agents, and the corresponding sizes distributions of the suspension particles are shown in the Table 1 below (D50, D90 (μm)).\nIn each experiment, 10 mg of Example 47 was mixed with 2 mL surfactant and 2 mL suspending agent. The mixtures were vortexed for 5 minutes, and probe sonicated at 3 W and homogenized for 2-4 minutes. The size distributions of the samples were measured using Mastersizer.\nNo visual size reduction was observed after sonication. Some size reduction was noticed visually after homogenization."}, "[4]": {"experiment": "serum, injection site muscle and lymph node levels after intramuscular injection", "type": "in vivo", "settings": "mice, intramuscular 4 mpk with 3MenB/Alum; both DMSO (non-homogeneous) and homogeneous suspensions"}, "[5]": {"settings": "10 mg ground 5 minutes with mortar and pestle, suspended in 0.5% Tween 80"}, "[6]": {"settings": "0.5% CMC, 0.5% Sodium Lauryl Sulfate"}, "[7]": {"settings": "0.5% HPC, 0.5% Sodium Lauryl Sulfate"}, "[8]": {"settings": "0.5% HPMC, 0.5% Sodium Lauryl Sulfate"}}, "data": [{"molecule": "Cc1ccc(CCc2cnc3c(N)nc4ccccc4c3c2)c(C)c1", "note": "[Example 47, 2-(2,4-dimethylphenethyl)benzo[f][1,7]naphthyridin-5-amine]", "values": [{"measurement": "solubility", "setting": "[1]; aqueous media, across full pH range", "value": "< 0.5", "unit": "µg/mL"}, {"measurement": "chemical stability", "setting": "[1]; crystalline drug substance", "value": "very good"}, {"measurement": "neutralizing titers, comparison of doses", "setting": "RSV virus", "value": "Highest neutralizing titers"}, {"measurement": "average particle size", "setting": "[2]", "value": "~100", "unit": "μm"}, {"measurement": "average particle size", "setting": "[2]; probe sonication 5 minutes, handheld homogenizer", "value": "~80", "unit": "μm"}, {"measurement": "particle size peak (larger)", "setting": "[2]; [5]", "value": "~8", "unit": "μm"}, {"measurement": "particle size peak (smaller)", "setting": "[2]; [5]", "value": 0.1, "unit": "μm"}, {"measurement": "size range for the larger peak", "setting": "[2]; [5]", "value": "1-100 μm"}, {"measurement": "D50", "setting": "[3]; 0.5% CMC, 0.1% Tween 80", "value": 76.2, "unit": "μm"}, {"measurement": "D90", "setting": "[3]; 0.5% CMC, 0.1% Tween 80", "value": 144.7, "unit": "μm"}, {"measurement": "D50", "setting": "[3]; 0.5% CMC, 0.5% Pluronic F-68", "value": 49.1, "unit": "μm"}, {"measurement": "D90", "setting": "[3]; 0.5% CMC, 0.5% Pluronic F-68", "value": 104.4, "unit": "μm"}, {"measurement": "D50", "setting": "[3]; [6]", "value": 28.0, "unit": "μm"}, {"measurement": "D90", "setting": "[3]; [6]", "value": 53.3, "unit": "μm"}, {"measurement": "D50", "setting": "[3]; 0.5% CMC, 0.5% Tween 80", "value": 75.8, "unit": "μm"}, {"measurement": "D90", "setting": "[3]; 0.5% CMC, 0.5% Tween 80", "value": 149.1, "unit": "μm"}, {"measurement": "D50", "setting": "[3]; 0.5% HPC, 0.1% Tween 80", "value": 43.6, "unit": "μm"}, {"measurement": "D90", "setting": "[3]; 0.5% HPC, 0.1% Tween 80", "value": 68.0, "unit": "μm"}, {"measurement": "D50", "setting": "[3]; 0.5% HPC, 0.5% Pluronic F-68", "value": 35.8, "unit": "μm"}, {"measurement": "D90", "setting": "[3]; 0.5% HPC, 0.5% Pluronic F-68", "value": 54.9, "unit": "μm"}, {"measurement": "D50", "setting": "[3]; [7]", "value": 38.9, "unit": "μm"}, {"measurement": "D90", "setting": "[3]; [7]", "value": 53.1, "unit": "μm"}, {"measurement": "D50", "setting": "[3]; 0.5% HPC, 0.5% Tween 80", "value": 35.4, "unit": "μm"}, {"measurement": "D90", "setting": "[3]; 0.5% HPC, 0.5% Tween 80", "value": 53.5, "unit": "μm"}, {"measurement": "D50", "setting": "[3]; 0.5% HPMC, 0.1% Tween 80", "value": 25.8, "unit": "μm"}, {"measurement": "D90", "setting": "[3]; 0.5% HPMC, 0.1% Tween 80", "value": 53.5, "unit": "μm"}, {"measurement": "D50", "setting": "[3]; 0.5% HPMC, 0.5% Pluronic F-68", "value": 19.4, "unit": "μm"}, {"measurement": "D90", "setting": "[3]; 0.5% HPMC, 0.5% Pluronic F-68", "value": 33.5, "unit": "μm"}, {"measurement": "D50", "setting": "[3]; [8]", "value": 26.8, "unit": "μm"}, {"measurement": "D90", "setting": "[3]; [8]", "value": 59.3, "unit": "μm"}, {"measurement": "D50", "setting": "[3]; 0.5% HPMC, 0.5% Tween 80", "value": 27.5, "unit": "μm"}, {"measurement": "D90", "setting": "[3]; 0.5% HPMC, 0.5% Tween 80", "value": 49.7, "unit": "μm"}, {"measurement": "systemic exposure", "setting": "[4]", "value": "low systemic exposure"}]}]}
